Source: US7879789B2, “Surfactant and composition containing the same” (priority 2006, dated 2011)

Assay: Emulsion stability of Table 1 blending compositions with various emulsifiers
Format: physicochemical
Conditions: storage at low temperature; Table 2
Description: The present inventors have prepared various polyoxyalkylene substitution compounds according to the respective synthesis examples and evaluated the emulsion stability for the blending compositions shown in Table 1. The various evaluation items are as follows. “Emulsion Stability” The oil phase component, water phase component, and various emulsifiers shown in Table 1 were mixed, and the emulsification mixing was carried out with a homomixer at 8000 rpm for 1 minute. The appearance was visually observed 30 minutes after emulsification, and the appearances were also observed after being stored for 3 days on standing at room temperature and also at −5° C., respectively. The evaluation criteria were as follows. • ◯ . . . The emulsion was uniform and milky white. • Δ . . . A small amount of floating oil was observed; however, it was milky white. • X . . . Solid matter was observed, or the separation of the water phase and the oil phase was observed.

| SMILES | emulsion stability at low temperature (in words) |
| --- | --- |
| CCCCCCCCCCCCOS(=O)(=O)[O-].[Na+] [Comparative Examples 1-1, Dodecyl sodium sulfate] | the emulsifier separated out |
| CCCCCCCCCCCC(=O)N[C@@H](CCC(=O)[O-])C(=O)[O-].[Na+].[Na+] [1-2, Sodium lauroyl-glutamate] | the emulsifier separated out |
